Reference: patent US11629171B2, “Beta-hairpin peptidomimetics” (POLYPHOR AG, priority 2017, dated 2023)
In brackets after ≈: the same amount, converted by molar mass. Where a SMILES comes first, the peptide text is derived from it. Bridges are numbered along the chain shown (N, C = ends). Roman numbers before positions name the chains, in order. [ ]: non-standard residue; d: D form. NMeDab = CN[C@@H](CCN)C(=O)O; Hiv = CC(C)[C@H](O)C(=O)O; dDab = NCC[C@@H](N)C(=O)O; Dab = NCC[C@H](N)C(=O)O; Dap = NC[C@H](N)C(=O)O

What was measured:
[1] = test system: Acinetobacter baumannii 872842; format: cell-based; conditions: 872842
Method in brief: (§1)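 Visible-growth endpoint after 18-20 h at 35° C defines the MIC (μg/mL). Setup: CLSI broth microdilution, MH-II cation-adjusted broth with P-80 at 0.002% final, inoculum of approximately 10^6 CFU/mL, two-fold serial peptide dilutions.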

[2] = test system: Acinetobacter baumannii DSM 30008; format: cell-based; conditions: DSM 30008
Method in brief: as §1

[3] = test system: Enterobacter cloacae 848840; format: cell-based; conditions: 848840
Method in brief: as §1

Escherichia coli 926415 = format: cell-based; conditions: 926415
Method in brief: as §1

[4] = test system: Escherichia coli ATCC 25922; format: cell-based; conditions: ATCC 25922
Method in brief: as §1

[5] = test system: Klebsiella pneumoniae 968733; format: cell-based; conditions: 968733
Method in brief: as §1

[6] = test system: Klebsiella pneumoniae SSI #3010; format: cell-based; conditions: SSI #3010
Method in brief: as §1

[7] = test system: Pseudomonas aeruginosa ATCC 27853; format: cell-based; conditions: ATCC 27853
Method in brief: as §1

[8] = test system: human red blood cells (hRBC); assay: Hemolysis; format: cell-based; conditions: red cells of human, 1 h, 200
Method in brief: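 First, fresh human erythrocytes are washed in PBS; next, they are incubated at 20% (v/v) with compound at 200 μg/mL for 1 h at 37° C. Finally, centrifuged supernatants are diluted and OD540 is taken relative to the Triton X-100 lysis control.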

male ICR mice = assay: Tolerability in a mouse model (Maximum Tolerated Dose assay); format: in vivo; conditions: 2 × 40 mg/kg s.c. at a 12-hr interval, groups of 3
Method in brief: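 Groups of 3 male ICR mice weighing 23±3 g received two subcutaneous doses, 12 h apart, of 30 or 40 mg/kg in saline adjusted to pH 6.5-7.6. Observation for 30 min after each dose covered autonomic effects and acute toxicity, including death.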

| SMILES | MIC [1] | Acinetobacter baumannii DSM 30008 MIC [2] | MIC [3] | MIC (Escherichia coli 926415) | Escherichia coli ATCC 25922 MIC [4] | MIC [5] | Klebsiella pneumoniae SSI #3010 MIC [6] | Pseudomonas aeruginosa ATCC 27853 MIC [7] | Hemolysis at 200 μg/mL [8] | Mortality and dose (male ICR mice) |
| --- | --- | --- | --- | --- | --- | --- | --- | --- | --- | --- |
| CC(=O)N[C@H](C(=O)N[C@H]1CSSC[C@@H](C(=O)N[C@@H](CO)C(N)=O)NC(=O)[C@H](C(C)C)NC(=O)[C@H](CO)NC(=O)[C@H](Cc2c[nH]c3ccccc23)NC(=O)[C@H](CO)NC(=O)[C@@H](CCN)NC(=O)[C@H](CCC(=O)N(C)[C@@H](CCN)C(=O)N[C@H](C(=O)N[C@@H](CN)C(=O)N[C@H]2CCNC(=O)[C@H]([C@@H](C)O)NC(=O)[C@H](CCN)NC(=O)[C@H](CCN)NC(=O)[C@H](CC(C)C)NC(=O)[C@@H](CC(C)C)NC(=O)[C@H](CCN)NC2=O)[C@@H](C)O)NC(=O)[C@H](CCN)NC(=O)[C@H](Cc2ccc(O)cc2)NC1=O)C(C)C [Ex. 311] (I: Ac-VCY[Dab]E[dDab]SWSVCS-NH2 / II: [NMeDab]T[Dap][Dab][Dab][dL]L[Dab][Dab]T; disulfide I:2-I:11; amide I:5-II:N; lactam II:4-II:C) | 0.125 µg/mL (≈ 0.0518 µM) | 0.0625 µg/mL | 0.125 µg/mL (≈ 0.0518 µM) | 0.25 µg/mL (≈ 0.104 µM) | 0.0625 µg/mL | 0.125 µg/mL (≈ 0.0518 µM) | 0.0625 µg/mL | 0.25 µg/mL | <1% | 0/3 died at 2 × 40 mg/kg |
| CC(C)C[C@@H]1NC(=O)[C@@H](CC(C)C)NC(=O)[C@H](CCN)NC(=O)[C@@H](NC(=O)[C@H](CN)NC(=O)[C@@H](NC(=O)[C@H](CCN)NC(=O)CC[C@@H]2NC(=O)[C@H](CCN)NC(=O)[C@H](Cc3ccc(O)cc3)NC(=O)[C@@H](NC(=O)[C@@H](O)C(C)C)CSSC[C@@H](C(=O)N[C@H](CO)C(N)=O)NC(=O)[C@H](C(C)C)NC(=O)[C@H](CO)NC(=O)[C@H](Cc3c[nH]c4ccccc34)NC(=O)[C@H](CO)NC(=O)[C@@H](CCN)NC2=O)[C@@H](C)O)CCNC(=O)[C@H]([C@@H](C)O)NC(=O)[C@H](CCN)NC(=O)[C@H](CCN)NC1=O [Ex. 344] (I: H-[Hiv]CY[Dab]E[dDab]SWSVC[dS]-NH2 / II: [Dab]T[Dap][Dab][Dab][dL]L[Dab][Dab]T; disulfide I:2-I:11; amide I:5-II:N; lactam II:4-II:C) | 0.25 µg/mL (≈ 0.106 µM) | 0.125 µg/mL | 1 µg/mL (≈ 0.424 µM) | 0.125 µg/mL (≈ 0.053 µM) | 0.0625 µg/mL | 0.25 µg/mL (≈ 0.106 µM) | 0.0625 µg/mL | 0.125 µg/mL | <1% | 0/3 died at 2 × 40 mg/kg |
| CC(=O)N[C@H](C(=O)N[C@H]1CSSC[C@@H](C(=O)N[C@@H](CO)C(=O)N[C@H](CO)C(N)=O)NC(=O)[C@H](C(C)C)NC(=O)[C@H](CO)NC(=O)[C@H](Cc2c[nH]c3ccccc23)NC(=O)[C@H](CO)NC(=O)[C@@H](CCN)NC(=O)[C@H](CCC(=O)N[C@@H](CCN)C(=O)N[C@H](C(=O)N[C@@H](CN)C(=O)N[C@H]2CCNC(=O)[C@H]([C@@H](C)O)NC(=O)[C@H](CCN)NC(=O)[C@H](CCN)NC(=O)[C@H](CC(C)C)NC(=O)[C@@H](CC(C)C)NC(=O)[C@H](CCN)NC2=O)[C@@H](C)O)NC(=O)[C@H](CCN)NC(=O)[C@H](Cc2ccc(O)cc2)NC1=O)C(C)C [Ex. 375] (I: Ac-VCY[Dab]E[dDab]SWSVCS[dS]-NH2 / II: [Dab]T[Dap][Dab][Dab][dL]L[Dab][Dab]T; disulfide I:2-I:11; amide I:5-II:N; lactam II:4-II:C) | 0.0625 µg/mL (≈ 0.0251 µM) | 0.03125 µg/mL | 0.25 µg/mL (≈ 0.101 µM) | 0.125 µg/mL (≈ 0.0503 µM) | 0.03125 µg/mL | 0.125 µg/mL (≈ 0.0503 µM) | 0.0625 µg/mL | 0.125 µg/mL | <1% | 0/3 died at 2 × 40 mg/kg |
| CC(=O)N[C@H](C(=O)N[C@H]1CSSC[C@@H](C(=O)N[C@@H](CO)C(N)=O)NC(=O)[C@H](C(C)C)NC(=O)[C@H](CO)NC(=O)[C@H](Cc2c[nH]c3ccccc23)NC(=O)[C@H](CCC(=O)N[C@@H](CCN)C(=O)N[C@H](C(=O)N[C@@H](CN)C(=O)N[C@H]2CCNC(=O)[C@H]([C@@H](C)O)NC(=O)[C@H](CCN)NC(=O)[C@H](CCN)NC(=O)[C@H](CC(C)C)NC(=O)[C@@H](CC(C)C)NC(=O)[C@H](CCN)NC2=O)[C@@H](C)O)NC(=O)[C@@H](CCN)NC(=O)[C@H](C)NC(=O)[C@H](CCN)NC(=O)[C@H](Cc2ccc(O)cc2)NC1=O)C(C)C [Ex. 361] (I: Ac-VCY[Dab]A[dDab]EWSVCS-NH2 / II: [Dab]T[Dap][Dab][Dab][dL]L[Dab][Dab]T; disulfide I:2-I:11; amide I:7-II:N; lactam II:4-II:C) | 0.0625 µg/mL (≈ 0.0262 µM) | 0.0625 µg/mL | 0.0625 µg/mL (≈ 0.0262 µM) | 0.125 µg/mL (≈ 0.0525 µM) | 0.0625 µg/mL | 0.125 µg/mL (≈ 0.0525 µM) | 0.0625 µg/mL | 0.125 µg/mL | <1% | 0/3 died at 2 × 40 mg/kg |
| CC(=O)N[C@H](C(=O)N[C@H]1CSSC[C@@H](C(=O)N[C@@H](CO)C(N)=O)NC(=O)[C@H](C(C)C)NC(=O)[C@H](CO)NC(=O)[C@H](Cc2c[nH]c3ccccc23)NC(=O)[C@H](CO)NC(=O)[C@@H](CCN)NC(=O)[C@H](CCC(=O)N[C@@H](CCN)C(=O)N[C@H](C(=O)N[C@@H](CN)C(=O)N[C@H]2CCNC(=O)[C@H]([C@@H](C)O)NC(=O)[C@H](CCN)NC(=O)[C@H](CCN)NC(=O)[C@H]([C@@H](C)O)NC(=O)[C@@H](CC(C)C)NC(=O)[C@H](CCN)NC2=O)[C@@H](C)O)NC(=O)[C@H](CCN)NC(=O)[C@H](Cc2ccc(O)cc2)NC1=O)C(C)C [Ex. 331] (I: Ac-VCY[Dab]E[dDab]SWSVCS-NH2 / II: [Dab]T[Dap][Dab][Dab][dL]T[Dab][Dab]T; disulfide I:2-I:11; amide I:5-II:N; lactam II:4-II:C) | 0.25 µg/mL (≈ 0.105 µM) | 0.125 µg/mL | 0.25 µg/mL (≈ 0.105 µM) | 0.5 µg/mL (≈ 0.209 µM) | 0.0625 µg/mL | 0.5 µg/mL (≈ 0.209 µM) | 0.0625 µg/mL | 0.125 µg/mL | <1% | 0/3 died at 2 × 40 mg/kg |
| CC(=O)N[C@H](C(=O)N[C@H]1CSSC[C@@H](C(=O)N[C@@H](CO)C(N)=O)NC(=O)[C@H](C(C)C)NC(=O)[C@H](CO)NC(=O)[C@H](Cc2c[nH]c3ccccc23)NC(=O)[C@H](CCN)NC(=O)CNC(=O)[C@H](CCC(=O)N[C@@H](CCN)C(=O)N[C@H](C(=O)N[C@@H](CN)C(=O)N[C@H]2CCNC(=O)[C@H]([C@@H](C)O)NC(=O)[C@H](CCN)NC(=O)[C@H](CCN)NC(=O)[C@H](CC(C)C)NC(=O)[C@@H](CC(C)C)NC(=O)[C@H](CCN)NC2=O)[C@@H](C)O)NC(=O)[C@H](CCN)NC(=O)[C@H](Cc2ccc(O)cc2)NC1=O)C(C)C [Ex. 345] (I: Ac-VCY[Dab]EG[Dab]WSVCS-NH2 / II: [Dab]T[Dap][Dab][Dab][dL]L[Dab][Dab]T; disulfide I:2-I:11; amide I:5-II:N; lactam II:4-II:C) | 0.125 µg/mL (≈ 0.0528 µM) | 0.0625 µg/mL | 0.125 µg/mL (≈ 0.0528 µM) | 0.125 µg/mL (≈ 0.0528 µM) | 0.0625 µg/mL | 0.25 µg/mL (≈ 0.106 µM) | 0.0625 µg/mL | 0.125 µg/mL | <1% | 0/3 died at 2 × 40 mg/kg |
